Laboratory results published in patent US20150164916A1, “ROFLUMILAST COMPOSITIONS FOR THE TREATMENT OF COPD” (Forest Laboratories Holdings Ltd., priority 2012, published 2015).

Experiments:
Assay type in all cases: cell-based, human
[1] = test system: IL-8 release; assay: LPS- or CSE-induced IL-8 release in isolated peripheral blood neutrophils (ELISA); details: 6 h
Experimental: (§1) Neutrophils and monocytes were isolated from peripheral venous blood by standard laboratory procedures. In brief, peripheral venous blood was mixed with dextran 500 at 3% (in 0.9% saline) in a proportion of 2:1. This mixture was incubated at room temperature for 30 min until erythrocytes were sedimented. The upper phase was carefully collected and added on Ficoll-Paque Histopaque 1077 (Amershan Pharmacia Biotech, Barcelona, Spain) density gradient in a proportion of 3:1. The two phases generated were centrifuged at 150 g, 4° C. for 30 min. Thus, the interface was collected to isolate monocytes, and the pellet obtained (which is consisted a mixture of neutrophils and low proportion of residual erythrocytes and traces of eosinophils and basophils) was resuspended in an erythrocyte lysis buffer (Biolegend, UK) for 5 min in ice. Cell suspension was washed two times with phosphate buffer (PBS).
(§2) CSE was prepared as previously outlined (Milara et al.; Ortiz et al.). Briefly, the smoke of a research cigarette (2R4F; Tobacco Health Research, University of Kentucky, KY, USA) was generated by a respiratory pump (Apparatus Rodent Respirator 680; Harvard, Germany) through a puffing mechanism related to the human smoking pattern (3 puff/min; 1 puff 35 ml; each puff of 2 s duration with 0.5 cm above the filter) and was bubbled into a flask containing 25 ml of pre-warmed (37° C.) RPMI 1640 culture medium supplemented as describe above. The CSE solution was sterilized by filtration through a 0.22-μm cellulose acetate sterilizing system (Corning, N.Y.). The resultant CSE solution was considered to be 100% CSE and was used for experiments within 30 min of preparation. CSE 10% corresponds approximately to the exposure associated with smoking two packs per day (Su et al., 1998). The quality of the prepared CSE solution was assessed based on the absorbance at 320 nm, which is the specific absorption wavelength of peroxynitrite. Stock solutions with an absorbance value of 3.0±0.1 were used. To test for cytotoxicity from CSE, isolated neutrophils and monocytes were treated with CSE concentrations of up to 5% for 24.
(§3) Peripheral neutrophil cell suspension was adjusted to 500×10^3 cells per well in 24-well plates and incubated in RPMI culture medium for 1 h into the incubator at 37° C., 5% CO2. […] Both the stimulus and drug were remained together for 6 h. Supernatants were collected and centrifuged at 120 g for 5 min, and the free-cell supernatant was used to measure IL-8, MMP-9, IL-1β, GM-CSF and CCL-5.
(§4) IL-8 was determined by using commercially available enzyme-linked immunosorbent assay kit for IL-8 (R&D Systems, UK) according to the manufacturer's protocol. MMP-9, IL-1β, GM-CSF and CCL-5 were measured by LUMINEX technology according to the manufacturer's protocol.
(§5) Data were presented as mean±SEM. IC50 values were calculated for each drug and their combinations. Statistical analysis of results was carried out by analysis of variance (ANOVA) followed by Bonferroni test, by Student's t test, or by non-parametric tests as appropriate (GraphPad Software Inc, San Diego, Calif., USA). Significance was accepted when P<0.05. For clinical correlations of lung function and gene expression from neutrophils the non-parametric Spearman correlation analysis was carried out.

[2] = test system: MMP-9 release; assay: LPS- or CSE-induced MMP-9 release in isolated peripheral blood neutrophils (LUMINEX); details: 6 h
Experimental: as §1, §2, §3, §4, §5

[3] = test system: CCL-5 release; assay: LPS-induced CCL-5 release in isolated peripheral blood neutrophils (LUMINEX); details: LPS (1 μg/ml), 6 h
Experimental: as §1, §3, §4, §5

[4] = test system: MKP1; assay: Real time RT-PCR of MKP1 mRNA in CSE-stimulated neutrophils from COPD patients; details: RNO 1 nM and 1 μM, DEX 1 μM, RNO 1 nM plus DEX 1 μM, NAC 1 mM for 1 h, then CSE 5% 6 h
Experimental: Neutrophils and monocytes were isolated from peripheral venous blood by standard laboratory procedures. In brief, peripheral venous blood was mixed with dextran 500 at 3% (in 0.9% saline) in a proportion of 2:1. This mixture was incubated at room temperature for 30 min until erythrocytes were sedimented. The upper phase was carefully collected and added on Ficoll-Paque Histopaque 1077 (Amershan Pharmacia Biotech, Barcelona, Spain) density gradient in a proportion of 3:1. The two phases generated were centrifuged at 150 g, 4° C. for 30 min. […]
CSE was prepared as previously outlined (Milara et al.; Ortiz et al.). […] The quality of the prepared CSE solution was assessed based on the absorbance at 320 nm, which is the specific absorption wavelength of peroxynitrite. Stock solutions with an absorbance value of 3.0±0.1 were used. […]
Total RNA was obtained from isolated neutrophils under basal conditions or after different drug and stimulation periods defined above by using TriPure® Isolation Reagent (Roche, Indianapolis, USA). […] Relative quantification of these transcripts was determined with the 2^−ΔΔCt method using glyceraldehyde phosphate dehydrogenase (GAPDH) as endogenous control (Applied Biosystems; 4352339E) and normalized to control group as previously described (Milara et al., 2009).
Then, mRNA was isolated and quantified for different genes.

[5] = test system: intracellular ROS; assay: Intracellular reactive oxygen species (ROS) by flow cytometry in whole blood neutrophils from COPD patients; details: fMLP 1 μM or CSE 5%, 1 h, NAC 1 mM
Experimental: Intracellular reactive oxygen species (ROS) were measured by a flow cytometry assay using 2′,7′-dichlorodihydrofluorescein diacetate (H2DCF-DA, Molecular Probes, UK) as previously outlined (Milara et al., 2010). H2DCF-DA was added for 15 min before stimulus to a final concentration of 5 μM to measure intracellular ROS. The bacterial peptide fMLP was added as stimulus at 1 μM […] to generate intracellular ROS (Elbim et al., 2001). In other experiments, to reproduce in vivo conditions, CSE 5% was added to generate intracellular ROS. Intracellular ROS was measured using fresh whole blood from COPD patients. Blood neutrophils were selected using CD16-Alexa Fluor 647 antibody (molecular probes, UK) as neutrophil marker, and CD14-PerCEP-Cy5.5 mouse antihuman (molecular probes, UK) as monocyte marker in an Epics Profile II flow cytometer. A total of 1 ml of whole blood was pre-incubated at 37° C. for 30 min with RNO ([…] (1 mM) and H2DCF-DA followed by fMLP 1 μM or CSE 5% stimulation for another 1 h. Then erythrocytes were lysed using a commercial erythrocyte lysis buffer (Biolegend, UK) for 10 min. Fluorescence intensity was measured in the polymorphonuclear region of whole blood in an Epics Profile II flow cytometer. Results were expressed as DCF fluorescence in relative fluorescence units (RFU).
To this end, whole blood was stimulated with the bacterial peptide fMLP 1 μM or with CSE 5% in presence or absence of RNO or NAC for 1 h.

[6] = CSE 5%, neutrophils from COPD patients
[7] = CSE 5%, neutrophils from HEALTHY
[8] = LPS (1 μg/ml), neutrophils from COPD patients
[9] = LPS (1 μg/ml), neutrophils from HEALTHY

-log IC50, inhibition of IL-8 release [1, 6]: 7.92 ± 0.1
-log IC50, inhibition of IL-8 release [1, 8]: 7.44 ± 0.24
-log IC50, inhibition of MMP-9 release [2, 6]: 8.76 ± 0.11
-log IC50, inhibition of MMP-9 release [2, 8]: 7.64 ± 0.23
-log IC50, inhibition of CCL-5 release ([3]; neutrophils from COPD patients): 8.77 ± 0.35
SMILES: O=C(Nc1c(Cl)c[n+]([O-])cc1Cl)c1ccc(OC(F)F)c(OCC2CC2)c1 [RNO, roflumilast N-oxide]
Maximal % Inhibition of IL-8 release [1, 6]: 88.9 ± 5.62%
-log IC50, inhibition of IL-8 release [1, 7]: 7.95 ± 0.12
Maximal % Inhibition of IL-8 release [1, 7]: 90.4 ± 5.4%
Maximal % Inhibition of IL-8 release [1, 8]: 48.70 ± 5.18%
-log IC50, inhibition of IL-8 release [1, 9]: 7.46 ± 0.26
Maximal % Inhibition of IL-8 release [1, 9]: 40.50 ± 4.55%
Maximal % Inhibition of MMP-9 release [2, 6]: 62.58 ± 2.28%
-log IC50, inhibition of MMP-9 release [2, 7]: 8.87 ± 5.6
Maximal % Inhibition of MMP-9 release [2, 7]: 64.8 ± 5.64%
Maximal % Inhibition of MMP-9 release [2, 8]: 94.61 ± 11.82%
-log IC50, inhibition of MMP-9 release [2, 9]: 7.66 ± 0.22
Maximal % Inhibition of MMP-9 release [2, 9]: 98.9 ± 12.6%
Maximal % Inhibition of CCL-5 release ([3]; neutrophils from COPD patients): 83.01 ± 6.74%
-log IC50, inhibition of CCL-5 release ([3]; neutrophils from HEALTHY): 8.62 ± 0.14
Maximal % Inhibition of CCL-5 release ([3]; neutrophils from HEALTHY): 79.34 ± 3.63%
effect on CSE-induced down-regulation of MKP1 mRNA expression [4]: reversed the effect of CSE
effect on ROS generation in neutrophils [5]: dose-dependently inhibited
effect on ROS generation in neutrophils ([5]; listed as Roflumilast N-oxide): inhibits
